Laboratory results reported in the supplement of paper PMC10307832.

Compound: CCCS(=O)(=O)Nc1ccc(F)c(C(=O)c2c[nH]c3ncc(-c4ccc(Cl)cc4)cc23)c1F [Vemurafenib] + NC(=O)Nc1cc(-c2cccc(F)c2)sc1C(=O)N[C@H]1CCCNC1 [AZD7762] (partner 0.2 µM)
Test: relative viability (nuclei count vs DMSO), 5 days (fraction); higher = more cells survive
Conditions: first compound 0.03162 µM
In short: (§1)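 Lung cancer cell lines in 1536-well plates were dosed by pin tool the day after seeding, either with one drug alone or with a fixed anchor-drug dose plus five library-drug doses (not always all listed) in √10 steps. After 5 days, cells were fixed and their nuclei stained in one step (final 0.05% Triton X-100, 1% formaldehyde, 1 ug/ml Hoechst), then counted on 4× images. Relative viability is the nuclei count in treated wells divided by that in vehicle wells. Values are medians of duplicate plates.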

Cell Line | relative viability
BEN | 0.566
LOU-NH91 | 0.735
NCI-H1651 | 0.407
LK-2 | 0.397
NCI-H2405 | 0.709
NCI-H1703 | 0.12
NCI-H1993 | 0.657
ChaGo-K-1 | 0.818
NCI-H1355 | 0.672
HCC-366 | 0.305
NCI-H1915 | 0.644
NCI-H838 | 0.899
A-427 | 0.696
ABC-1 | 0.668
NCI-H522 | 0.797
NCI-H1792 | 0.548
NCI-H1395 | 0.397
SW 900 | 0.575

Same assay, conditions: first compound 0.1 µM

Cell Line | relative viability
NCI-H2126 | 0.997
EPLC-272H | 0.166
NCI-H1755 | 0.459
NCI-H1793 | 0.243
NCI-H2342 | 0.499
NCI-H1975 | 0.697
NCI-H1437 | 1.04
HOP-62 | 0.558
HCC-44 | 0.975
BEN | 0.761
LOU-NH91 | 0.682
NCI-H1651 | 0.407
LK-2 | 0.428
NCI-H2405 | 0.696
NCI-H1648 | 0.571
ChaGo-K-1 | 0.853
NCI-H1355 | 0.663
HCC-366 | 0.213
NCI-H1915 | 0.728
NCI-H838 | 0.955
A-427 | 0.709
ABC-1 | 0.775
NCI-H522 | 0.855
NCI-H1792 | 0.44
NCI-H1395 | 0.411
SW 900 | 0.469

Same assay, conditions: first compound 0.3162 µM

Cell Line | relative viability
NCI-H2126 | 0.99
EPLC-272H | 0.156
NCI-H1755 | 0.328
NCI-H1793 | 0.131
NCI-H2342 | 0.47
H3255 | 0.723
NCI-H1975 | 0.396
NCI-H1437 | 0.943
HOP-62 | 0.395
HCC-44 | 1.2
BEN | 0.392
LOU-NH91 | 0.594
NCI-H1651 | 0.4
PC-3 [JPC-3] | 0.785
LK-2 | 0.406
NCI-H1648 | 1.23
NCI-H1993 | 0.804
ChaGo-K-1 | 0.738
NCI-H1355 | 0.603
NCI-H1915 | 0.587
NCI-H838 | 0.709
ABC-1 | 0.622
NCI-H522 | 0.755
NCI-H1395 | 0.381
SW 900 | 0.618

Same assay, conditions: first compound 1 µM

Cell Line | relative viability
NCI-H2126 | 1.1
EPLC-272H | 0.218
NCI-H1755 | 0.408
NCI-H1793 | 0.492
NCI-H2342 | 0.518
H3255 | 0.949
NCI-H1975 | 0.654
PC-14 | 0.356
NCI-H1437 | 1.09
HOP-62 | 0.668
HCC-44 | 1.03
BEN | 0.638
LOU-NH91 | 0.816
NCI-H1651 | 0.467
PC-3 [JPC-3] | 0.94
LK-2 | 0.312

Cell Line | relative viability
NCI-H2405 | 0.721
NCI-H1703 | 0.101
NCI-H1648 | 0.779
NCI-H1993 | 0.966
ChaGo-K-1 | 0.882
NCI-H1355 | 0.698
HCC-366 | 0.259
NCI-H1915 | 0.612
NCI-H838 | 0.918
A-427 | 0.792
ABC-1 | 0.813
NCI-H522 | 0.869
NCI-H1792 | 0.593
NCI-H1395 | 0.373
SW 900 | 0.563

Compound: COc1cccc2cc(-c3nc([C@H]4CC[C@H](C(=O)O)CC4)n4ncnc(N)c34)[nH]c12 [OSI-027] + C[C@@H](Oc1cc(-c2cnn(C3CCNCC3)c2)cnc1N)c1c(Cl)ccc(F)c1Cl [Crizotinib] (partner 1 µM)
Test: as above
Conditions: first compound 0.01 µM
In short: as §1

Cell Line | relative viability
NCI-H2126 | 1.04
EPLC-272H | 1.05
NCI-H1755 | 0.915
NCI-H2023 | 0.679
NCI-H1650 | 1.13
H3255 | 0.842
NCI-H1975 | 1.1
PC-14 | 1
NCI-H1299 | 0.994
NCI-H1437 | 0.987
HOP-62 | 1.02
HCC-44 | 0.819
BEN | 0.921
LOU-NH91 | 0.73
NCI-H661 | 0.998
NCI-H1651 | 0.878
PC-3 [JPC-3] | 0.999
SW 1573 | 0.855
LK-2 | 0.199
NCI-H2405 | 0.856
NCI-H1703 | 0.753

Cell Line | relative viability
NCI-H1993 | 0.783
ChaGo-K-1 | 1.38
NCI-H1355 | 0.969
HCC-366 | 0.817
NCI-H1915 | 0.928
NCI-H838 | 0.803
A-427 | 0.91
NCI-H2009 | 1.05
ABC-1 | 1.23
Calu-6 | 0.806
SK-LU-1 | 0.937
COR-L23 | 0.688
NCI-H1563 | 0.835
NCI-H1792 | 1.06
COR-L 105 | 0.754
NCI-H520 | 0.813
EBC-1 | 0.21
NCI-H2228 | 0.525
A549 | 0.782
IA-LM | 0.96
SK-MES-1 | 0.995

Same assay, conditions: first compound 0.03162 µM

Cell Line | relative viability
NCI-H2126 | 0.986
EPLC-272H | 0.872
NCI-H1755 | 0.771
NCI-H2023 | 0.587
NCI-H1650 | 0.999
H3255 | 0.838
NCI-H1975 | 0.88
PC-14 | 0.898
NCI-H1299 | 0.984
NCI-H1437 | 0.966
HOP-62 | 0.922
HCC-44 | 0.794
BEN | 0.545
LOU-NH91 | 0.726
NCI-H661 | 1.1
NCI-H1651 | 0.801
PC-3 [JPC-3] | 0.943
SW 1573 | 0.832
LK-2 | 0.229
NCI-H2405 | 0.729
NCI-H1703 | 0.591

Cell Line | relative viability
NCI-H1993 | 0.77
ChaGo-K-1 | 1.02
NCI-H1355 | 0.937
HCC-366 | 0.315
NCI-H1915 | 0.829
NCI-H838 | 0.696
A-427 | 0.821
NCI-H2009 | 0.998
ABC-1 | 0.881
Calu-6 | 0.726
SK-LU-1 | 0.789
COR-L23 | 0.549
NCI-H1563 | 0.894
NCI-H1792 | 0.617
COR-L 105 | 0.741
NCI-H520 | 0.848
EBC-1 | 0.21
NCI-H2228 | 0.524
A549 | 0.711
IA-LM | 0.578
SK-MES-1 | 0.933

Same assay, conditions: first compound 0.1 µM

Cell Line | relative viability
NCI-H2126 | 0.996
EPLC-272H | 0.944
NCI-H1755 | 0.872
NCI-H2023 | 0.614
NCI-H1650 | 0.886
H3255 | 0.76
NCI-H1975 | 0.99
PC-14 | 0.95
NCI-H1299 | 0.937
NCI-H1437 | 0.995
HOP-62 | 0.999
HCC-44 | 0.817
BEN | 0.612
LOU-NH91 | 0.693
NCI-H661 | 1.14
NCI-H1651 | 0.841
PC-3 [JPC-3] | 1.02
SW 1573 | 0.687
LK-2 | 0.273
NCI-H2405 | 0.814
NCI-H1703 | 0.595

Cell Line | relative viability
NCI-H1993 | 0.678
ChaGo-K-1 | 1.2
NCI-H1355 | 0.998
HCC-366 | 0.52
NCI-H1915 | 0.931
NCI-H838 | 0.599
A-427 | 0.866
NCI-H2009 | 0.879
ABC-1 | 1.1
Calu-6 | 0.765
SK-LU-1 | 0.644
COR-L23 | 0.674
NCI-H1563 | 0.768
NCI-H1792 | 1.01
COR-L 105 | 0.766
NCI-H520 | 0.876
EBC-1 | 0.183
NCI-H2228 | 0.485
A549 | 0.704
IA-LM | 0.78
SK-MES-1 | 0.997

Same assay, conditions: first compound 0.3162 µM

Cell Line | relative viability
NCI-H2126 | 0.915
EPLC-272H | 0.697
NCI-H1755 | 0.748
NCI-H2023 | 0.501
NCI-H1650 | 1.2
H3255 | 0.886
NCI-H1975 | 0.97
PC-14 | 0.934
NCI-H1299 | 1.04
NCI-H1437 | 0.944
HOP-62 | 1.36
HCC-44 | 0.737
BEN | 0.34
LOU-NH91 | 0.681
NCI-H661 | 1.15
NCI-H1651 | 0.816
PC-3 [JPC-3] | 0.984
SW 1573 | 0.655
LK-2 | 0.242
NCI-H2405 | 0.631
NCI-H1703 | 0.672

Cell Line | relative viability
NCI-H1993 | 0.565
ChaGo-K-1 | 0.997
NCI-H1355 | 0.847
HCC-366 | 0.415
NCI-H1915 | 0.896
NCI-H838 | 0.447
A-427 | 0.673
NCI-H2009 | 0.941
ABC-1 | 0.957
Calu-6 | 0.626
SK-LU-1 | 0.531
COR-L23 | 0.985
NCI-H1563 | 0.701
NCI-H1792 | 0.902
COR-L 105 | 0.894
NCI-H520 | 0.424
EBC-1 | 0.184
A549 | 0.45
IA-LM | 0.249
SK-MES-1 | 0.965

Same assay, conditions: first compound 1 µM

Cell Line | relative viability
NCI-H2126 | 0.664
EPLC-272H | 0.787
NCI-H1755 | 0.421
NCI-H2023 | 0.295
NCI-H1650 | 0.531
H3255 | 0.587
NCI-H1975 | 0.828
PC-14 | 0.581
NCI-H1299 | 0.937
NCI-H1437 | 0.441
HOP-62 | 0.428
HCC-44 | 0.343
BEN | 0.393
LOU-NH91 | 0.508
NCI-H661 | 0.645
NCI-H1651 | 0.635
PC-3 [JPC-3] | 0.551
SW 1573 | 0.566
LK-2 | 0.203
NCI-H2405 | 0.338
NCI-H1703 | 0.374

Cell Line | relative viability
NCI-H1993 | 0.56
ChaGo-K-1 | 0.922
NCI-H1355 | 0.276
HCC-366 | 0.119
NCI-H1915 | 0.584
NCI-H838 | 0.367
A-427 | 0.374
NCI-H2009 | 0.72
ABC-1 | 0.47
Calu-6 | 0.625
SK-LU-1 | 0.358
COR-L23 | 0.4
NCI-H1563 | 0.733
NCI-H1792 | 0.199
COR-L 105 | 0.415
NCI-H520 | 0.286
EBC-1 | 0.164
NCI-H2228 | 0.239
A549 | 0.167
IA-LM | 0.139
SK-MES-1 | 0.52
